Patent US20130231458A1, “POLYPEPTIDE FOR PREVENTING AND TREATING CELL HYPERPLASIA” (priority 2011, published 2013)

Columns and labels:
erythrocytes = conditions: very low concentration (lower than 5 μM); cited from earlier work
[1] = Weights, motility and side effects of nude mice in the xenograft experiment; format: in vivo, nude mice (NU/NU)
Protocol: (§1) The polypeptide of the present invention is preventively injected into the rear parts of the necks of four nude mice (nude mice—NU/NU) for a week (5 times per week at a dose of 50 mg/Kg). Next, 1×10^6 lung cancer cells are injected into the hypodermic tissue of the right side of the abdomen of each nude mouse on Day 1. The abovementioned four nude mice function as the medicine test group. Next, the polypeptide is delivered to each nude mouse of the medicine test group at a dose of 50 mg/Kg 5 times per week from Day 1 to Day 43. Meanwhile, the weight and cancer size of each nude mouse of the medicine test group is recorded. The negative control group also has four nude mice. Normal saline having a pH of 7.2-7.4 is subcutaneously injected into the four nude mice of the negative control group for a week (5 times per week). Next, 1×10^6 lung cancer cells are injected into the hypodermic tissue of the right side of the abdomen of each nude mouse of the negative control group on Day 1. Next, normal saline is delivered to each nude mouse of the negative control group 5 times per week from Day 1 to Day 43. Meanwhile, the weight and cancer size of each nude mouse of the negative control group is recorded. The positive control group also has four nude mice. 1×10^6 lung cancer cells are injected into the hypodermic tissue of the right side of the abdomen of each nude mouse of the positive control group on Day 1. Next, a small-molecule anti-cancer drug Doxorubicin is intravenously injected into a region near the abdomen of each nude mouse of the positive control group once per week at a dose of 5 mg/Kg from Day 1 to Day 43 (refer to F Pastorino et. al., Clin. Cancer Res. 14(22): 7320-7329, 2008). Meanwhile, the weight and cancer size of each nude mouse of the positive control group is recorded. Different from the abovementioned two groups, medicine is not applied to the positive control group before Day 1. The medicine test group, negative control group and positive group are observed until Day 43. The mice of the three groups are dissected for examining and recording the weight of the tumor tissue on Day 43.

lung cancer cells = assay: Xenograft model of lung cancer in nude mice, tumor volume; format: in vivo, nude mice (NU/NU)
Protocol: as §1, with “The negative control group also has four nude mice.” left out, “The positive control group also has four nude mice.” left out, “The medicine test group, negative control group and positive group are observed until Day 43.” left out

**Q.** For `CC[C@H](C)[C@H](NC(=O)CN)C(=O)NCC(=O)N[C@@H](C)C(=O)N[C@H](C(=O)N[C@@H](CC(C)C)C(=O)N[C@@H](CCCCN)C(=O)N[C@H](C(=O)N[C@@H](CC(C)C)C(=O)N[C@H](C(=O)N[C@H](C(=O)NCC(=O)N[C@@H](CC(C)C)C(=O)N1CCC[C@H]1C(=O)N[C@@H](C)C(=O)N[C@@H](CC(C)C)C(=O)N[C@H](C(=O)N[C@@H](CO)C(=O)N[C@@H](Cc1c[nH]c2ccccc12)C(=O)N[C@H](C(=O)N[C@@H](CCCCN)C(=O)N[C@@H](CCCNC(=N)N)C(=O)N[C@@H](CCCCN)C(=O)N[C@@H](CCCNC(=N)N)C(=O)N[C@@H](CCC(N)=O)C(=O)N[C@@H](CCC(N)=O)C(N)=O)[C@@H](C)CC)[C@@H](C)CC)[C@@H](C)O)[C@@H](C)O)C(C)C)C(C)C` [melittin], which erythrocytes damaged (erythrocytes) is on record?
**A.** about 90%

**Q.** For `COc1cccc2c1C(=O)c1c(O)c3c(c(O)c1C2=O)C[C@@](O)(C(=O)CO)C[C@@H]3O[C@H]1C[C@H](N)[C@H](O)[C@H](C)O1` [Dox, Doxorubicin], which “Weights of Nude Mice” value ([1]; D1, polypeptide 50 mg/Kg s.c. 5 times per week (plus one week before D1), Dox 5 mg/Kg i.v. once per week) is on record?
**A.** 25.6 gram

**Q.** What about the “Weights of Nude Mice” value ([1]; D5, same dosing) of the same compound?
**A.** 26.5 gram

**Q.** What about the “Weights of Nude Mice” value ([1]; D8, same dosing) of the same compound?
**A.** 27.8 gram

**Q.** What about the “Weights of Nude Mice” value ([1]; D12, same dosing) of the same compound?
**A.** 28.2 gram

**Q.** What about the “Weights of Nude Mice” value ([1]; D15, same dosing) of the same compound?
**A.** 28.8 gram

**Q.** What about the “Weights of Nude Mice” value ([1]; D19, same dosing) of the same compound?
**A.** 30.4 gram

**Q.** What about the “Weights of Nude Mice” value ([1]; D22, same dosing) of the same compound?
**A.** 30.0 gram

**Q.** And the “Weights of Nude Mice” value ([1]; D26, same dosing)?
**A.** 30.4 gram

**Q.** What about the “Weights of Nude Mice” value ([1]; D29, same dosing) of the same compound?
**A.** 30.0 gram

**Q.** And the “Weights of Nude Mice” value ([1]; D33, same dosing)?
**A.** 31.5 gram

**Q.** And the “Weights of Nude Mice” value ([1]; D36, same dosing)?
**A.** 32.1 gram

**Q.** And the “Weights of Nude Mice” value ([1]; D40, same dosing)?
**A.** 32.5 gram

**Q.** And the “Weights of Nude Mice” value ([1]; D43, same dosing)?
**A.** 32.8 gram

**Q.** What about the “weights and motilities during the experiment” value ([1]; Day 1 to Day 43) of the same compound?
**A.** do not vary significantly

**Q.** And the “Tumor Volumes of Nude Mice” value (lung cancer cells; D22, polypeptide 50 mg/Kg s.c. 5 times per week (plus one week before D1), Dox 5 mg/Kg i.v. once per week)?
**A.** 57.8 mm^3

**Q.** And the “Tumor Volumes of Nude Mice” value (lung cancer cells; D29, same dosing)?
**A.** 373.8 mm^3

**Q.** What about the “Tumor Volumes of Nude Mice” value (lung cancer cells; D33, same dosing) of the same compound?
**A.** 553.5 mm^3

**Q.** What about the “Tumor Volumes of Nude Mice” value (lung cancer cells; D36, same dosing) of the same compound?
**A.** 632.6 mm^3

**Q.** What about the “Tumor Volumes of Nude Mice” value (lung cancer cells; D40, same dosing) of the same compound?
**A.** 884.5 mm^3

**Q.** And the “Tumor Volumes of Nude Mice” value (lung cancer cells; D43, same dosing)?
**A.** 1308.9 mm^3

**Q.** And the “ratio of the average tumor volumes of treated group and negative control group (saline)” value (lung cancer cells; at best, Day 40)?
**A.** 52.0%

**Q.** What about the “ratio of the average tumor volumes of treated group and negative control group (saline)” value (lung cancer cells; end of the experiment (Day 43)) of the same compound?
**A.** 83.05%
